# Patent US9994555B2, “Chromenone inhibitors of monocarboxylate transporters” (THE SCRIPPS RESEARCH INSTITUTE, priority 2015, dated 2018)
# Tested on: Raji (Burkitt's) lymphoma cells
# Experiment: MTT assay for 4-day viability of Raji (Burkitt's) lymphoma cells
# Type: cell-based
# Conditions: Homo sapiens, 96 h, Raji (Burkitt's) lymphoma cells highly expressing MCT1, estimated EC50 given as bin, read-out: approximate potency (EC50)
# Source text: Specific Examples of compounds of the invention, with estimated EC50 values determined using an MTT assay for 4-day viability of Raji (Burkitt's) lymphoma cells, a cell line known to highly express MCT1 and to be sensitive to small molecule MCT inhibitors,^4 are shown in Table 8. Assay protocols follow those described in the literature.^4 Other assays that are not described here but that are standard in the field, such as an assay for competitive inhibition of transport of radiolabeled lactic acid, an MCT substrate, may also be useful in establishing mechanism of action of these compounds.
row,Structure (SMILES),EC50
1,"O=c1cc(-c2ccccc2)oc2cc(Oc3ccnc4ccccc34)cc(OCCCO)c12 [Example 26, 5-(3-hydroxypropoxy)-2-phenyl-7-(quinolin-4-yloxy)-4H-chromen-4-one]",1000 to 10000 nM
2,"O=c1cc(-c2ccccc2)oc2cc(Oc3ccnc4ccccc34)cc(OCC(O)CO)c12 (stereo not drawn) [Example 27, 5-(2,3-dihydroxypropoxy)-2-phenyl-7-(quinolin-4-yloxy)-4H-chromen-4-one]",≥ 10000 nM
3,"O=c1cc(-c2ccccc2)oc2cc(OCc3cccc4ccccc34)cc(OCCCO)c12 [Example 28, 5-(3-hydroxypropoxy)-7-(naphthalen-1-ylmethoxy)-2-phenyl-4H-chromen-4-one]",1000 to 10000 nM
4,"O=c1cc(-c2ccccc2)oc2cc(OCc3cccc4ccccc34)cc(OCCCCO)c12 [Example 29, 5-(4-hydroxybutoxy)-7-(naphthalen-1-ylmethoxy)-2-phenyl-4H-chromen-4-one]",1000 to 10000 nM
5,"CC(C)c1cc(=O)c2c(OCCCCO)cc(OCc3ccnc4ccccc34)cc2o1 [Example 30, 5-(4-hydroxybutoxy)-2-isopropyl-7-(quinolin-4-ylmethoxy)-4H-chromen-4-one]",≤ 100 nM
6,"CC(C)c1cc(=O)c2c(OCCCCO)cc(COc3cccc4ccccc34)cc2o1 [Example 35, 5-(4-hydroxybutoxy)-2-isopropyl-7-((naphthalen-1-yloxy)methyl)-4H-chromen-4-one]",1000 to 10000 nM
7,"CC(C)c1cc(=O)c2c(CCCCO)cc(OCc3cccc4ccccc34)cc2o1 [Example 36, 5-(4-hydroxybutyl)-2-isopropyl-7-(naphthalen-1-ylmethoxy)-4H-chromen-4-one]",1000 to 10000 nM
8,"CC(C)c1cc(=O)c2c(CCCCCO)cc(OCc3cccc4ccccc34)cc2o1 [Example 37, 5-(5-hydroxypentyl)-2-isopropyl-7-(naphthalen-1-ylmethoxy)-4H-chromen-4-one]",1000 to 10000 nM
9,"CC(C)c1cc(=O)c2c(-c3cccc(CCO)c3)cc(OCc3cccc4ccccc34)cc2o1 [Example 38, 5-(3-(2-hydroxyethyl)phenyl)-2-isopropyl-7-(naphthalen-1-ylmethoxy)-4H-chromen-4-one]",1000 to 10000 nM
10,"CC(C)c1cc(=O)c2c(-c3cc(CO)ccc3Cl)cc(OCc3cccc4ccccc34)cc2o1 [Example 39, 5-(2-chloro-5-(hydroxymethyl)phenyl)-2-isopropyl-7-(naphthalen-1-ylmethoxy)-4H-chromen-4-one]",1000 to 10000 nM
11,"CC(C)c1cc(=O)c2c(-c3cc(CO)ccc3F)cc(OCc3cccc4ccccc34)cc2o1 [Example 40, 5-(2-fluoro-5-(hydroxymethyl)phenyl)-2-isopropyl-7-(naphthalen-1-ylmethoxy)-4H-chromen-4-one]",1000 to 10000 nM
12,"CC(C)c1cc(=O)c2c(-c3cccc(CO)c3F)cc(OCc3cccc4ccccc34)cc2o1 [Example 41, 5-(2-fluoro-3-(hydroxymethyl)phenyl)-2-isopropyl-7-(naphthalen-1-ylmethoxy)-4H-chromen-4-one]",≥ 10000 nM
13,CC(C)c1cc(=O)c2c(-c3ccccc3CO)cc(OCc3cccc4ccccc34)cc2o1 [Example 44],≥ 10000 nM
14,CC(C)c1cc(=O)c2c(-c3ccc(CO)cc3)cc(OCc3cccc4ccccc34)cc2o1 [Example 45],1000 to 10000 nM
15,"CC(C)c1cc(=O)c2c(NCCCCO)cc(OCc3cccc4ccccc34)cc2o1 [Example 46, 5-((4-hydroxybutyl)amino)-2-isopropyl-7-(naphthalen-1-ylmethoxy)-4H-chromen-4-one]",1000 to 10000 nM
16,"CC(C)c1cc(=O)c2c(NCCCCCO)cc(OCc3cccc4ccccc34)cc2o1 [Example 47, 5-((5-hydroxypentyl)amino)-2-isopropyl-7-(naphthalen-1-ylmethoxy)-4H-chromen-4-one]",≥ 10000 nM
17,"CC(C)c1cc(=O)c2c(NCCCO)cc(OCc3cccc4ccccc34)cc2o1 [Example 48, 5-((3-hydroxypropyl)amino)-2-isopropyl-7-(naphthalen-1-ylmethoxy)-4H-chromen-4-one]",1000 to 10000 nM
18,"CC(C)c1cc(=O)c2c(Nc3cccc(CO)c3)cc(OCc3cccc4ccccc34)cc2o1 [Example 49, 5-((3-(hydroxymethyl)phenyl)amino)-2-isopropyl-7-(naphthalen-1-ylmethoxy)-4H-chromen-4-one]",≥ 10000 nM
19,"CC(C)c1cc(=O)c2c(N3CCC(CO)CC3)cc(OCc3cccc4ccccc34)cc2o1 [Example 50, 5-(4-(hydroxymethyl)piperidin-1-yl)-2-isopropyl-7-(naphthalen-1-ylmethoxy)-4H-chromen-4-one]",1000 to 10000 nM

# Results, then the compound that gave them:
row,EC50,Structure (SMILES)
1,≤ 100 nM,"CC(C)c1cc(=O)c2c(OCc3ccccc3CO)cc(Oc3ccncc3C(F)(F)F)cc2o1 [Example 17, 5-((2-(hydroxymethyl)benzyl)oxy)-2-isopropyl-7-((3-(trifluoromethyl)pyridin-4-yl)oxy)-4H-chromen-4-one]"
2,100 to 1000 nM,"CC(C)c1cc(=O)c2c(OCc3ccccc3CO)cc(OCc3cncs3)cc2o1 [Example 18, 5-((2-(hydroxymethyl)benzyl)oxy)-2-isopropyl-7-(thiazol-5-ylmethoxy)-4H-chromen-4-one]"
3,≤ 100 nM,"CC(C)c1cc(=O)c2c(OCc3ccccc3CO)cc(OCc3cccc4cccnc34)cc2o1 [Example 19, 5-((2-(hydroxymethyl)benzyl)oxy)-2-isopropyl-7-(quinolin-8-ylmethoxy)-4H-chromen-4-one]"
4,≤ 100 nM,"CC(C)c1cc(=O)c2c(OCc3ccccc3CO)cc(OCc3ccc4ccccc4n3)cc2o1 [Example 20, 5-((2-(hydroxymethyl)benzyl)oxy)-2-isopropyl-7-(quinolin-2-ylmethoxy)-4H-chromen-4-one]"
5,100 to 1000 nM,"CC(C)c1cc(=O)c2c(OCc3ccccc3CO)cc(OCc3ccc4ncccc4c3)cc2o1 [Example 21, 5-((2-(hydroxymethyl)benzyl)oxy)-2-isopropyl-7-(quinolin-6-ylmethoxy)-4H-chromen-4-one]"
6,100 to 1000 nM,"O=c1cc(C2CC2)oc2cc(OCc3cccc4ccccc34)cc(OCc3ccccc3CO)c12 [Example 22, 2-cyclopropyl-5-((2-(hydroxymethyl)benzyl)oxy)-7-(naphthalen-1-ylmethoxy)-4H-chromen-4-one]"
7,≤ 100 nM,"O=c1cc(C2CC2)oc2cc(OCc3cccnc3C(F)(F)F)cc(OCc3ccccc3CO)c12 [Example 23, 2-cyclopropyl-5-((2-(hydroxymethyl)benzyl)oxy)-7-((2-(trifluoromethyl)pyridin-3-yl)methoxy)-4H-chromen-4-one]"
8,≤ 100 nM,"CC(C)c1cc(=O)c2c(OCc3ccccc3CO)cc(OCc3ccnc4ccccc34)cc2o1 [Example 24, 5-((2-(hydroxymethyl)benzyl)oxy)-2-isopropyl-7-(quinolin-4-ylmethoxy)-4H-chromen-4-one]"
9,≤ 100 nM,"CC(C)c1cc(=O)c2c(OCc3ccccc3CO)cc(OCc3cnc(Cl)c4ccccc34)cc2o1 [Example 25, 7-((1-chloroisoquinolin-4-yl)methoxy)-5-((2-(hydroxymethyl)benzyl)oxy)-2-isopropyl-4H-chromen-4-one]"
10,100 to 1000 nM,"Cc1cc(=O)c2c(OCc3ccccc3CO)cc(Oc3ccnc4ccccc34)cc2o1 [Example 31, 5-((2-(hydroxymethyl)benzyl)oxy)-2-methyl-7-(quinolin-4-yloxy)-4H-chromen-4-one]"
11,100 to 1000 nM,"CC(C)c1cc(=O)c2c(OCc3ccccc3CO)cc(Oc3cc(C(F)(F)F)ccn3)cc2o1 [Example 32, 5-((2-(hydroxymethyl)benzyl)oxy)-2-isopropyl-7-((4-(trifluoromethyl)pyridin-2-yl)oxy)-4H-chromen-4-one]"
12,100 to 1000 nM,"CC(C)c1cc(=O)c2c(OCc3ccccc3CO)cc(OCc3cncnc3)cc2o1 [Example 33, 5-((2-(hydroxymethyl)benzyl)oxy)-2-isopropyl-7-(pyrimidin-5-ylmethoxy)-4H-chromen-4-one]"
13,100 to 1000 nM,"CC(C)c1cc(=O)c2c(-c3cccc(CO)c3)cc(Oc3ccnc4ccccc34)cc2o1 [Example 42, 5-(3-(hydroxymethyl)phenyl)-2-isopropyl-7-(quinolin-4-yloxy)-4H-chromen-4-one]"
14,100 to 1000 nM,"CC(C)c1cc(=O)c2c(-c3cccc(CO)c3)cc(OCc3cccc4ccccc34)cc2o1 [Example 43, 5-(3-(hydroxymethyl)phenyl)-2-isopropyl-7-(naphthalen-1-ylmethoxy)-4H-chromen-4-one]"
